The source of these data is patent US9096543B2, “Nuclear transport modulators and uses thereof” (Karyopharm Therapeutics Inc., priority 2012, dated 2015).

The nature of series [1]: MTT Cell Proliferation Assay (CellTiter 96 AQueous One Solution, MTS). The class given is cell-based. Conditions: human; 72 h treatment; cell line not given; read-out: Cytotoxicity [IC50]. The source says:
The CellTiter 96® AQueous One Solution cell proliferation assay (Promega) was used on MM1.S, Jurkat and HCT-116 cells to study the cytotoxic and cytostatic properties of the compounds. The assay is based on the cleavage of the tetrazolium salt, MTS, in the presence of an electron-coupling reagent PES (phenazine ethosulfate). The MTS tetrazolium compound is bioreduced by cells into a colored formazan product that is soluble in tissue culture medium. This conversion is presumably accomplished by NADPH or NADH produced by dehydrogenase enzymes in metabolically active cells. Assays are performed by adding a small amount of the CellTiter 96® AQueous One solution reagent directly to culture wells, incubating for 1-4 hours and then recording the absorbance at 490 nm with a 96-well plate reader. […] The cells were seeded at 5×10^3 to 1.5×10^4 cells (depending on cell type) in each well of 96-well plate in 100 μL of fresh culture medium and adherent cells were allowed to attach for overnight. The stock solutions of the compounds were diluted in cell culture medium to obtain eight concentrations of each drug, ranging from 1 nM to 30 μM and DMSO at less than 1% v/v was used as a negative control. After 72 h of treatment 20 μl of CellTiter 96® AQueous reagent was added into each well of the 96-well assay plates and the plate was incubate at 37° C. for 1-4 hours in a humidified, 5% CO2 atmosphere. Then the absorbance of each well was recorded at 490 nm by using a 96-well plate reader. In most cases the assay was performed in triplicates and the results were presented as half maximal inhibitory concentration (IC50) described below. Optical density versus compound concentration was plotted and analyzed using non linear regression equations (Excel Fit) and the IC50 for each compound was calculated.

Series [2] is described as follows: Pharmacokinetics (plasma AUC) in mice. The class given is in vivo. The following applies: mouse, 10 mg/kg po. As to the method: Blood was collected from mice (N=3) to contribute to the total of 10 time points (pre-dose, 5 min, 15 min, 30 min, 1 hour, 2 hours, 4 hours, 8 hours, 12 hours and 24 hours post dose). Mice were bled on a rotating basis, each mouse contributing 3 time points to the blood collection. At the designated time points, animals were anaesthetized under isoflurane, and approximately 110 μL of blood per time point was collected via retro-orbital puncture into pre-cooled K2EDTA (anti-coagulant) tubes. Blood samples were put on wet ice and centrifuged (2000 g, 5 min at 4° C.) to obtain plasma within 30 minutes of sample collection. All samples were stored frozen at approximately −80° C. until analysis. Prior to analysis, samples were mixed with internal standard (dexamethasone) in acetonitrile, vortexed, centrifuged, and supernatant was injected for analysis. Concentration of compounds in plasma was determined using LC-MS-MS instrumentation (API 4000, Triple Quadruple with electrospray ionization; Acuity Ultra Performance Liquid Chromatography column C18, with MeOH and formic acid as organic solvents). PK parameters including but not limited to Tmax, Cmax, t1/2, AUClast, AUCinf were calculated using WinNonlin Professional 6.2 software package, non-compartmental pharmacokinetic model NCA200.

Series [3] in a line: Brain to plasma ratio (B:P) in mice. The format is in vivo. The following applies: mouse, brain and plasma, 10 mg/kg po, 2 hours post-dose. As to the method:
Brain tissue following collection was rinsed with cold saline, dried on filter paper, weighed and snap-frozen by placing on dry ice. All samples were stored frozen at approximately −80° C. until analysis. […] Plasma samples were treated with the identical method (except homogenization step) and concentration of compound in either matrix was calculated based on the generated standard curves.

Series [4] concerns Z-138 xenograft tumors. The series is described as follows: Z-138 lymphoma cell line grown as a xenograft in SCID mice. The class given is in vivo, CB-17 SCID mice. As to the method: Z-138 (ATCC # CRL-3001) mantle cell lymphoma cells were obtained from ATCC. These cells were grown in IMEM medium supplemented with 10% horse serum, 1% penicillin and streptomycin, and 2 mM L-glutamine. […] Twenty-four (24) female CB-17 SCID mice (Charles River Labs strain code 236), aged 5 to 6 weeks were used. The SCID mice were inoculated in the left flank with Z-138 cells in a volume of 0.2 mL, equivalent to 4×10^7 cells per mouse. […] Mice were allocated to […] prior to the initiation of treatment based on tumor volume such that mean tumor volume in each group was within the range of 77 to 92 mm^3. […] Animals were fed with Labdiet® 5001 rodent chow and sterile water ad libitum. […] Animals with weight loss of more than 20% of their starting weight were euthanized. Mice with weight loss of more than 15% of their starting weight were not treated again until weight loss recovered to less than 5% of their starting weight. Any animals with a tumor volume of more than 1500 mm^3 were euthanized. Dosing solutions were prepared fresh on each day of dosing. […] This was prepared by dissolving the lyophilized powder in sterile water.

Series [5] deals with A549 xenograft tumors. The series is described as follows: A549 lung carcinoma xenograft model. The format is in vivo, CB-17 SCID mice. As to the method:
The A549 cell line was derived from explant culture of alveolar carcinoma tissue from a person. The cells were grown in Ham's F12-K tissue culture media with 10% fetal calf serum and 1% penicillin/streptomycin. Cells were routinely trypsinized and passaged 1:10. Thirty-two (32) female CB-17 SCID mice (Charles River Labs strain code 236), aged 5 to 6 weeks were used with a mean pre-treatment body weight of 16.3 grams. Mice were divided into four (4) groups of eight (8) prior to the initiation of treatment based on tumor volume. On the day of implantation, cells were washed in PBS, trypsinized and resuspended in complete media to a density of 2×10^7 cells/mL prior to being mixed with an equal volume of Matrigel. This mixture was then inoculated subcutaneously into mice in a volume of 0.1 mL using a 23 G needle.
Animal weights and condition were recorded daily, and tumors were measured on Mondays, Wednesdays and Fridays with micro-calipers, and tumor volume was calculated as (length×width×width)/2.
Animals with weight loss of more than 20% of their starting weight were euthanized. Mice with weight loss of more than 15% of their starting weight were not treated again until weight loss recovered to less than 5% of their starting weight. Any animals with a tumor volume of more than 1500 mm^3 were euthanized.
Dosing solutions were prepared fresh on each day of dosing. Compound 2 was supplied as a lyophilized powder containing 69.61% Compound 2 with the balance made up of Pluronic F-68 and PVP K29/32. This was prepared by dissolving the lyophilized powder in sterile water. Cisplatin was dissolved at 5 mg/mL in DMSO and diluted 1:10 in sterile water for injection. All test articles were administered in a volume of 0.1 mL/10 g body weight.
Statistical differences between treatment groups were determined using Mann-Whitney Rank Sum or ANOVA tests with a critical value of 0.05.

For orientation: IC50 means the concentration at which inhibition is half-maximal. The term AUC(0-inf) denotes total exposure, with the tail of the curve extrapolated. The Kp is the ratio of the level in a tissue or fluid to that in plasma or blood. In the case of `O=C(/C=C\n1cnc(-c2cc(C(F)(F)F)cc(C(F)(F)F)c2)n1)NNC(=O)CN1CCOCC1` [Compound 2, (Z)-3-(3-(3,5-bis(trifluoromethyl)phenyl)-1H-1,2,4-triazol-1-yl)-N′-(2-morpholinoacetyl)acrylohydrazide], the 50% inhibitory concentration (IC50) at 72 h in series [1] is less than 1 µM. Moreover, the AUC(0-inf) in series [2] is 28900 ng·h/mL. In series [3], the concentration ratio (Kp) at 2 h came to 0.16. In addition, in series [4] (Compound 2 15 mg/kg PO, significant vs vehicle, severe loss limited to a few animals), the weight loss entry is recorded as “Some weight loss was observed”. Besides, the antitumor effect entry is “had antitumor effect at both 7.5 mg/kg and 15 mg/kg doses in a dose dependent manner” in series [4] (Compound 2 orally, 7.5 and 15 mg/kg MWF); “had an antitumor effect at both 5 mg/kg and 10 mg/kg doses in a dose dependent manner” in series [5] (Compound 2 orally, 5 and 10 mg/kg). Besides, the “tumor volume AUC compared to vehicle control (one-way ANOVA)” value in series [5] (Compound 2 10 mg/kg PO, p=0.0005, 10 mg/kg) was “statistically significant difference”.
Take `CC(C)(C)C(=O)NNC(=O)/C=C\n1cnc(-c2cc(C(F)(F)F)cc(C(F)(F)F)c2)n1` [Compound 1, (Z)-3-(3-(3,5-bis(trifluoromethyl)phenyl)-1H-1,2,4-triazol-1-yl)-N′-pivaloylacrylohydrazide]: the IC50 at 72 h in series [1] was less than 1 µM. Also, the area under the curve AUC(0-inf) in series [2] is 33100 ng·h/mL. For the same compound, in series [3], the concentration ratio (Kp) at 2 h is 2.25.
